Residues, ends and D or L forms follow the SMILES beside them. No end group written: not given here. *: point of attachment. Boc = CC(C)(C)OC(=O)*
How the values were obtained:
Type in all cases: biochemical
Human Enterokinase [1] = molecular target: T1, Human Enterokinase (Homo sapiens, UniProt P98073); assay: Inhibition of human enterokinase, Gly-(Asp)4-Lys-2-Nap as substrate; details: substrate Gly-(Asp)4-Lys-2-Nap; linear regression of 1/v against [I] at three substrate concentrations
Method: (§1) Biological testing was carried out on the polyaspartyl argininal materials prepared as described above without further purification. […] Inhibition constants Ki for human and pig enterokinase were calculated using α-N-[^3 H] acetyl trypsinogen and Gly-(Asp)4 -Lys-2-Nap as substrates using linear regression analysis of l/v against [I] at three substrate concentrations. Inhibition of trypsin catalysed hydrolysis of both these substrates and Bz-Arg-OEt was expressed as the IC50, the concentration of inhibitor required to reduce trypsin activity by 50%. The results to activation peptides, four peptides of the invention, leupeptin and p-aminobenzamidine are set out in Tables 1 to 3 below.

Pig Enterokinase = Pig Enterokinase (Sus scrofa, UniProt P98074); assay: Inhibition of pig enterokinase, α-N-[3H]acetyl trypsinogen as substrate; details: substrate α-N-[3H]acetyltrypsinogen
Chain of Pig Enterokinase (P98074 52-1034): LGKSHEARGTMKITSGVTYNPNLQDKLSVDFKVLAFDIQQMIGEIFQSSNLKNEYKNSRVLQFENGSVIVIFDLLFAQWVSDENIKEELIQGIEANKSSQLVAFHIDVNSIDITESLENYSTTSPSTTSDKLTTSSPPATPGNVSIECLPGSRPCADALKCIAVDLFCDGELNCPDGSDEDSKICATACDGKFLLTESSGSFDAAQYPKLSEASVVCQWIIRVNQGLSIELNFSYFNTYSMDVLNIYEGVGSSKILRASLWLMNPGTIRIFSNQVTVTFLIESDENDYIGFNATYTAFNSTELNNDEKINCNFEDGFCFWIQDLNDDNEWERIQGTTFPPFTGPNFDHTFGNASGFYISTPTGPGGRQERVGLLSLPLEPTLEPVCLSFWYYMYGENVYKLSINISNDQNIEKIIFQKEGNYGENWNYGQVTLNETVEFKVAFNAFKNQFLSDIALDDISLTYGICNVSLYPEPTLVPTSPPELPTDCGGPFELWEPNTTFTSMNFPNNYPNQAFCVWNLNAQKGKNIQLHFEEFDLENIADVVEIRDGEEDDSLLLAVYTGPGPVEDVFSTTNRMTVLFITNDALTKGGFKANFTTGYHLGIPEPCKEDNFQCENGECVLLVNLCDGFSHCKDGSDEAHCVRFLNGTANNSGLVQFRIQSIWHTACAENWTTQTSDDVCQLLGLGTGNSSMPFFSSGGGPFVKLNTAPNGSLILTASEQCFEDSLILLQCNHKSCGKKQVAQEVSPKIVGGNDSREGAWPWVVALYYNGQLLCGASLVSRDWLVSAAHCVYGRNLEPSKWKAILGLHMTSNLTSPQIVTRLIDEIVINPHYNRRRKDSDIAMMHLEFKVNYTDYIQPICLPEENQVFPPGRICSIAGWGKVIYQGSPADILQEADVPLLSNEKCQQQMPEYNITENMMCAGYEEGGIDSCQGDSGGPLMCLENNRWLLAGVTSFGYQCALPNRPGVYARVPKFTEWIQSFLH
Method: as §1

Human Enterokinase [2] = molecular target: T1, Human Enterokinase; assay: Inhibition of human enterokinase, α-N-[3H]acetyl trypsinogen as substrate; details: substrate α-N-[3H]acetyltrypsinogen
Method: as §1

T1 sequence (P98073 whole entry): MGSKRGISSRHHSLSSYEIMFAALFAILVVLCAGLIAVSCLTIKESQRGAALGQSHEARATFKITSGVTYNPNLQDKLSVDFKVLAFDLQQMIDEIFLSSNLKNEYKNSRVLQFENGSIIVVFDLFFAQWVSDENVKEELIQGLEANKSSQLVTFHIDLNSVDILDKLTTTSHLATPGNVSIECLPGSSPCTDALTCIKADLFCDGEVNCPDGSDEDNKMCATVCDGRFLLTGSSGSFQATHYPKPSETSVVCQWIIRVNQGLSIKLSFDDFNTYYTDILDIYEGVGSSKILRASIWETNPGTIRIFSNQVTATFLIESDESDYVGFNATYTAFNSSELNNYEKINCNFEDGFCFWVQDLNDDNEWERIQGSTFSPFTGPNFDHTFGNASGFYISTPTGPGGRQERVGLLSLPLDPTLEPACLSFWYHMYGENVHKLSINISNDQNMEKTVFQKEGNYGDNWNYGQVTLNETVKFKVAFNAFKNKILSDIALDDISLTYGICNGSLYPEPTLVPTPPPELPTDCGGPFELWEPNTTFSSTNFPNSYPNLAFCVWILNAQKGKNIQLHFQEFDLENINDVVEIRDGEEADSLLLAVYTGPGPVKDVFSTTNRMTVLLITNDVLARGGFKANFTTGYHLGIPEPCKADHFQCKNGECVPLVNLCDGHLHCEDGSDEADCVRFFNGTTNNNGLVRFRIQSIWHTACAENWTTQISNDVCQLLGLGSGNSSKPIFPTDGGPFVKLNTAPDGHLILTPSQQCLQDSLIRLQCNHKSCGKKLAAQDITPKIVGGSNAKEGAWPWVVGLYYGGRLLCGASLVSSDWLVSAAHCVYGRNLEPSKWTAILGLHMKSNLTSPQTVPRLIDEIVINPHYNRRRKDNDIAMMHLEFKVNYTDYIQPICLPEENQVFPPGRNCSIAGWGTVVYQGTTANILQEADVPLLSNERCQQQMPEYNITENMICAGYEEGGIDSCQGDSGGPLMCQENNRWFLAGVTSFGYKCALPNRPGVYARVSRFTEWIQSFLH

Ki (Human Enterokinase [1]) | Ki (Pig Enterokinase) | Ki (Human Enterokinase [2]) | Molecule
200 ± 50 nM | 50 ± 10 nM | 10 ± 5 nM | CC(C)(C)OC(=O)N[C@@H](CC(=O)O)C(=O)N[C@@H](CC(=O)O)C(=O)N[C@H](C=O)CCCNC(=N)N [Boc(Asp)2 Argal, Boc--(Asp)2 --Argininal] (Boc-Asp-Asp-Arg-aldehyde)
100 nM | 35 ± 5 nM | 20 ± 5 nM | CC(C)(C)OC(=O)N[C@@H](CC(=O)O)C(=O)N[C@@H](CC(=O)O)C(=O)N[C@@H](CC(=O)O)C(=O)N[C@H](C=O)CCCNC(=N)N [Boc(Asp)3 Argal, Boc--(Asp)3 --Argininal] (Boc-DDDR-aldehyde)
55 ± 5 nM | 20 ± 10 nM | 10 ± 5 nM | CC(C)(C)OC(=O)N[C@@H](CC(=O)O)C(=O)N[C@@H](CC(=O)O)C(=O)N[C@@H](CC(=O)O)C(=O)N[C@@H](CC(=O)O)C(=O)N[C@H](C=O)CCCNC(=N)N [Boc(Asp)4 Argal, Boc--(Asp)4 --Argininal] (Boc-DDDDR-aldehyde)
1000 nM | ≥ 1000 nM | – | CC(=O)N[C@@H](CC(C)C)C(=O)N[C@@H](CC(C)C)C(=O)N[C@H](C=O)CCCNC(=N)N [Leupeptin, reference compound]
– | ≥ 50000 nM | ≥ 50000 nM | N=C(N)c1ccc(N)cc1 [p-aminobenzamidine, reference compound]
750000 nM | – | – | APFDDDDK [Ala--Pro--Phe--(Asp)4 Lys, reference compound]
100000 nM | – | – | DDDDK [(Asp)4 Lys, reference compound]
